Data from US7375081B2, “Therapeutic combination of a pneumocandin derivative and an antifungal agent” (Astellas Pharma Inc., priority 1999, dated 2008).
Like-named read-outs stand apart in the source and are kept apart here. One block for each compound: values may come before it.

Test system: clinical isolates of Aspergillus fumigatus
Assay: Broth microdilution checkerboard MIC, RPMI medium (pH 7.0), drugs alone and combined
Type: cell-based
Details: for MIC: Aspergillus fumigatus
Procedure: The broth microdillution method using RPMI medium (pH 7.0) was used, comparing the each drug alone (Test Compound, AMPH-B, ITCZ, Nikkomycin X and 5-FC) and combined for each clinical isolates of Aspergillus fumigatus. A combination of drug concentrations was evaluated by the checkerboard method.
All tubes were examined macroscopically for growth and compared to a control (no drug). MIC was visually determined as the lowest concentration resulting in prominent decrease in turbidity compared to controls.
The Fractional Inhibitory Concentration (FIC) for each drug in mixture wells was compared to the MIC for each drug alone. The FIC index was calculated from the sum of the FICs for the two drugs. A quantitative expression of the interaction for inhibition is as follows: Synergy≦0.5; Test Result In vitro combination with Test Compound and AMPH-B against A. fumigatus

Compound: CCCCCOc1ccc(-c2cc(-c3ccc(C(=O)NC4CC(O)C(O)NC(=O)C5C(O)C(C)CN5C(=O)C(C(O)CC(N)=O)NC(=O)C(C(O)C(O)c5ccc(O)c(OS(=O)(=O)[O-])c5)NC(=O)C5CC(O)CN5C(=O)C(C(C)O)NC4=O)cc3)no2)cc1.[Na+] (stereo not shown) [Test Compound]
MIC Test Compound Combination (A. fumigatus 8004, in combination with AMPH-B): 0.0078 µg/mL
MIC Test Compound Combination (A. fumigatus 8008, in combination with ITCZ): 0.0078 µg/mL
MIC Test Compound Combination (A. fumigatus FP1923, in combination with Nikkomycin X): ≦0.001 μg/ml
MIC Test Compound Combination (A. fumigatus FP1990, in combination with 5-FC): 0.002 µg/mL
MIC (read-out: MIC Test Compound Alone, A. fumigatus 8004, drug alone): 0.0313 µg/mL
MIC (read-out: MIC Test Compound Alone, A. fumigatus 8008, drug alone): 0.0313 µg/mL
MIC (read-out: MIC Test Compound Alone, A. fumigatus FP1923, drug alone): 0.0039 µg/mL
MIC (read-out: MIC Test Compound Alone, A. fumigatus FP1990, drug alone): 0.0078 µg/mL

Compound: Nc1[nH]c(=O)ncc1F [5-FC, flucytosine]
MIC 5-FC Combination (A. fumigatus FP1990, in combination with Test Compound): 8 µg/mL
MIC (A. fumigatus FP1990, drug alone, read-out: MIC 5-FC Alone): > 32 µg/mL

Compound: C[C@@H]([C@H](N)C(=O)N[C@H](C(=O)O)[C@H]1OC(n2cc(C=O)nc2O)[C@H](O)[C@@H]1O)[C@H](O)c1ccc(O)cn1 (stereo partly shown) [Nikkomycin X, nikkomycin X]
MIC Nikkomycin X Alone (A. fumigatus FP1923, drug alone): 128 µg/mL
MIC Nikkomycin X Combination (A. fumigatus FP1923, in combination with Test Compound): 4 µg/mL

Next, values leading:

MIC ITCZ Combination (A. fumigatus 8008, in combination with Test Compound): 0.125 µg/mL
MIC (A. fumigatus 8008, drug alone, read-out: MIC ITCZ Alone): 0.5 µg/mL
Compound: CCC(C)n1ncn(-c2ccc(N3CCN(c4ccc(OCC5COC(Cn6cncn6)(c6ccc(Cl)cc6Cl)O5)cc4)CC3)cc2)c1=O (stereo not shown) [ITCZ, itraconazole]

MIC AMPH-B Alone (A. fumigatus 8004, drug alone): 2 µg/mL
MIC AMPH-B Combination (A. fumigatus 8004, in combination with Test Compound): 0.5 µg/mL
Compound: C[C@@H]1[C@H](O)[C@@H](C)/C=C/C=C/C=C/C=C/C=C/C=C/C=C/[C@H](O[C@@H]2O[C@H](C)[C@@H](O)[C@H](N)[C@@H]2O)C[C@@H]2O[C@](O)(C[C@@H](O)C[C@@H](O)[C@H](O)CC[C@@H](O)C[C@@H](O)CC(=O)O[C@H]1C)C[C@H](O)[C@H]2C(=O)O [AMPH-B, amphotericin B]
